Measurements reported in patent US20110190269A1, “GAMMA SECRETASE MODULATORS” (priority 2010, published 2011).
Counter-ions that a name gives are not always drawn.

What follows are compounds tested on γ-secretase (assay: Cellular γ-secretase assay (inhibition of Aβ42 secretion)). Settings: human neuroglioma H4 cells overexpressing human APP, 22 hrs incubation.
Format: cell-based
Outline: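 H4 neuroglioma cells overexpressing human APP got a ten-point compound dilution (0.4% DMSO final) for 22 h at 37 °C. Secreted Aβ42 in the supernatant was measured by electrochemiluminescence sandwich immunoassay (capture biotinylated 6E10, detection ruthenylated BAP15). IC50 came from a nonlinear regression fit.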

| EC50 | Structure (SMILES) |
| --- | --- |
| 68 nM | COc1cc(Nc2nc3nc(C)cc(-c4ccc(F)c(Cl)c4)n3n2)ccc1-n1cnc(C)c1 [Example 93, 7-(3-Chloro-4-fluorophenyl)-N-(3-methoxy-4-(4-methyl-1H-imidazol-1-yl)phenyl)-5-methyl-[1,2,4]triazolo[1,5-a]pyrimidin-2-amine] |
| 39 nM | CCOC(=O)c1cc(-c2ccc(F)c(Cl)c2)n2nc(Nc3ccc(-n4cnc(C)c4)c(OC)c3)nc2n1 [Example 94, Ethyl 7-(3-chloro-4-fluorophenyl)-2-(3-methoxy-4-(4-methyl-1H-imidazol-1-yl)phenylamino)-[1,2,4]triazolo[1,5-a]pyrimidine-5-carboxylate] |
| 84 nM | COc1cc(Nc2nc3c(-c4cccc(CNC(=O)OC(C)(C)C)c4)cc(C)cn3n2)ccc1-n1cnc(C)c1 [Example 95, tert-Butyl 3-(2-(3-methoxy-4-(4-methyl-1H-imidazol-1-yl)phenylamino)-6-methyl-[1,2,4]triazolo[1,5-a]pyridin-8-yl)benzylcarbamate] |
| 93 nM | COc1cc(Nc2nc3c(C4=CCN(C(=O)OC(C)(C)C)CC4)cc(C)cn3n2)ccc1-n1cnc(C)c1 [Example 96, tert-Butyl 4-(2-(3-methoxy-4-(4-methyl-1H-imidazol-1-yl)phenylamino)-6-methyl-[1,2,4]triazolo[1,5-a]pyridin-8-yl)-5,6-dihydropyridine-1(2H)-carboxylate] |
| 470 nM | COc1cc(Nc2nc3c(-c4cccc(CN)c4)cc(C)cn3n2)ccc1-n1cnc(C)c1 [Example 97, 8-(3-(Aminomethyl)phenyl)-N-(3-methoxy-4-(4-methyl-1H-imidazol-1-yl)phenyl)-6-methyl-[1,2,4]triazolo[1,5-a]pyridin-2-amine dihydrochloride] |
| 390 nM | COc1cc(Nc2nc3c(-c4cccc(CNS(C)(=O)=O)c4)cc(C)cn3n2)ccc1-n1cnc(C)c1 [Example 98, N-(3-(2-(3-Methoxy-4-(4-methyl-1H-imidazol-1-yl)phenylamino)-6-methyl-[1,2,4]triazolo[1,5-a]pyridin-8-yl)benzyl)methanesulfonamide] |
| 227 nM | COc1cc(Nc2nc3c(N4CCOCC4)cccn3n2)ccc1-n1cnc(C)c1 [Example 101, N-(3-Methoxy-4-(4-methyl-1H-imidazol-1-yl)phenyl)-8-morpholino-[1,2,4]triazolo[1,5-a]pyridin-2-amine] |
| 356 nM | CCOC(=O)N1CC=C(c2cc(C)cn3nc(Nc4ccc(-n5cnc(C)c5)c(OC)c4)nc23)CC1 [Example 107, Ethyl 4-(2-(3-methoxy-4-(4-methyl-1H-imidazol-1-yl)phenylamino)-6-methyl-[1,2,4]triazolo[1,5-a]pyridin-8-yl)-5,6-dihydropyridine-1(2H)-carboxylate] |
| 270 nM | COc1cc(Nc2nc3n(n2)C(c2ccccc2)CCO3)ccc1-n1cnc(C)c1 (stereo not drawn) [Example 109, N-(3-Methoxy-4-(4-methyl-1H-imidazol-1-yl)phenyl)-7-phenyl-6,7-dihydro-5H-[1,2,4]triazolo[5,1-b][1,3]oxazin-2-amine] |
| 29 nM | Cc1cn(-c2ccc(Nc3nc4c(-c5ccc(F)cc5Cl)cccn4n3)cc2F)cn1 [Example 110, 8-(2-chloro-4-fluorophenyl)-N-(3-fluoro-4-(4-methyl-1H-imidazol-1-yl)phenyl)-[1,2,4]triazolo[1,5-a]pyridin-2-amine] |
| 29 nM | Cc1cn(-c2c(F)cc(Nc3nc4c(-c5ccc(F)cc5Cl)cccn4n3)cc2F)cn1 [Example 111, 8-(2-chloro-4-fluorophenyl)-N-(3,5-difluoro-4-(4-methyl-1H-imidazol-1-yl)phenyl)-[1,2,4]triazolo[1,5-a]pyridin-2-amine] |

| Structure (SMILES) | EC50 |
| --- | --- |
| COc1cc(Nc2nc3c(C4=CCN(CC#N)CC4)cc(C)cn3n2)ccc1-n1cnc(C)c1 [Example 108, 2-(4-(2-(3-Methoxy-4-(4-methyl-1H-imidazol-1-yl)phenylamino)-6-methyl-[1,2,4]triazolo[1,5-a]pyridin-8-yl)-5,6-dihydropyridin-1(2H)-yl)acetonitrile] | 488 nM |
